From patent publication US6031004A, “Salts of metformin and method” (Bristol-Myers Squibb Company, priority 1999, dated 2000)
Counter-ions that a name gives are not always drawn. Like-named read-outs stand apart in the source and are kept apart here.

What was measured:
[1] = hygroscopicity / moisture uptake at 95% relative humidity by Dynamic Vapour Sorption (DVS); assay type: physicochemical; conditions: for % moisture uptake, 30 min / % moisture uptake, 70 min / % moisture uptake, 3 hours / % moisture uptake, 6 hours: DVS; for moisture uptake equilibrium reached or not: at the last time point (6 hours; 30 min for succinate)
Method: The following experiment was carried out to determine moisture sorption/desorption profiles of metformin (2:1) fumarate salt and metformin (2:1) succinate salt compared to the moisture uptake properties of metformin hydrochloride salt.
The hygroscopicity of metformin salts was assessed by Dynamic Vapour Sorption (DVS), a means of rapidly assessing sample moisture uptake properties. […] […] The weight increase of sample at each condition is recorded until a defined minimal rate of mass change is reached or a specified time period for equilibrium exceeded.

[2] = compaction susceptibility (tendency of the salt to compact under its own weight); assay type: physicochemical
[3] = 95% relative humidity/25° C., hydrochloride

moisture content after 6 hours (summary) ([1]; 95% relative humidity at 25° C.) [%] | % moisture uptake, 30 min ([1]; 95% relative humidity/25° C.) [%] | % moisture uptake, 70 min ([1]; 95% relative humidity/25° C.) [%] | % moisture uptake, 3 hours ([1]; 95% relative humidity/25° C.) [%] | hygroscopicity, moisture uptake at 6 hours ([1]; 95% relative humidity/25° C.) | % moisture uptake, 6 hours ([1]; 95% relative humidity/25° C.) [%] | compaction susceptibility [2] | equilibrium moisture content after 30 minutes (summary) ([1]; 95% relative humidity at 25° C., 30 minutes) [%] | hygroscopicity, moisture uptake at 30 minutes ([1]; 95% relative humidity/25° C., 30 minutes) | moisture uptake equilibrium reached or not ([1]; 95% relative humidity/25° C.) | moisture content after 6 hours (summary) ([1]; 95% relative humidity at 25° C., hydrochloride) [%] | % moisture uptake, 30 min [1, 3] [%] | % moisture uptake, 70 min [1, 3] [%] | % moisture uptake, 3 hours [1, 3] [%] | % moisture uptake, 6 hours [1, 3] [%] | hygroscopicity, moisture uptake at 6 hours [1, 3] | compaction susceptibility ([2]; hydrochloride) | SMILES | moisture absorbed compared to the metformin (2:1) fumarate and succinate salts ([1]; vs metformin (2:1) fumarate and succinate salts, 95% relative humidity)
6.6 | 1.0 | 2.0 | 4.1 | less than 7 % moisture uptake | 6.6 | low compaction susceptibility | – | – | – | – | – | – | – | – | – | – | CN(C)C(=N)N=C(N)N [metformin (2:1) fumarate] | –
– | 0.27 | – | – | less than 7 % moisture uptake | – | low compaction susceptibility | 0.27 | less than 1 % moisture uptake | reach equilibrium | – | – | – | – | – | – | – | CN(C)C(=N)NC(=N)N [metformin (2:1) succinate] | –
– | – | – | – | – | – | – | – | – | did not reach equilibrium | 20 | 1.2 | 3.3 | 10.0 | 20.1 | greater than 20 % moisture uptake | high compaction susceptibility | CN(C)C(=N)N=C(N)N [metformin hydrochloride, reference compound] | substantially greater amounts of moisture
